What was measured:
Recombinant mouse PD-L1 = target: T1, Recombinant mouse PD-L1 (Mus musculus, UniProt Q9EP73); assay: Rescue of mouse splenocyte proliferation in the presence of recombinant PD-L1 (CFSE proliferation assay); type: cell-based; conditions: 100 nM compound; anti-CD3/CD28 stimulated mouse splenocytes + PD-L1; 72 h; stimulated splenocytes = 100%; read-out: PDL1 (rescue of proliferation @ 100 nM)
T1 construct: Fc (Fc chimera); purchased R&D Systems 1019-B7-100
Method: Example 1: Rescue of Mouse Splenocyte Proliferation in the Presence of Recombinant PD-L1/PD-L2
Recombinant mouse PD-L1 (rm-PDL-1, cat no: 1019-B7-100; R&D Systems) were used as the source of PD-L1.
Mouse splenocytes harvested from 6-8 weeks old C57 BL6 mice; RPMI 1640 (GIBCO, Cat #11875); DMEM with high glucose (GIBCO, Cat #D6429); Fetal Bovine Serum [Hyclone, Cat #SH30071.03]; Penicillin (10000unit/mL)-Streptomycin (10,000 μg/mL) Liquid (GIBCO, Cat #15140-122); MEM Sodium Pyruvate solution 100 mM (100×), Liquid (GIBCO, Cat #11360); Nonessential amino acid (GIBCO, Cat #11140); L-Glutamine (GIBCO, Cat #25030); Anti-CD3 antibody (eBiosciences-16-0032); Anti-CD28 antibody (eBiosciences-16-0281); ACK lysis buffer (1mL) (GIBCO, Cat #-A10492); Histopaque (density-1.083 gm/mL) (SIGMA 10831); Trypan blue solution (SIGMA-T8154); 2 mL Norm Ject Luer Lock syringe-(Sigma 2014-12); 40 μm nylon cell strainer (BD FALCON 35230); Hemacytometer (Bright line-SIGMA Z359629); FACS Buffer (PBS/0.1% BSA): Phosphate Buffered Saline (PBS) pH 7.2 (HiMedia TS1006) with 0.1% Bovine Serum Albumin (BSA) (SIGMA A7050) and sodium azide (SIGMA 08591); 5 mM stock solution of CFSE: CFSE stock solution was prepared by diluting lyophilized CFSE with 180 μL of Dimethyl sulfoxide (DMSO C2H6SO, SIGMA-D-5879) and aliquoted in to tubes for further use. Working concentrations were titrated from 10 μM to 1 μM. (eBioscience-650850-85); 0.05% Trypsin and 0.02% EDTA (SIGMA 59417C); 96-well format ELISA plates (Corning CLS3390); BD FACS caliber (E6016);
Recombinant mouse B7-H1/PDL1 Fc Chimera, (rm-PD-L1 cat no: 1019-B7-100).
Splenocytes harvested in a 50 mL falcon tube by mashing mouse spleen in a 40 μm cell strainer were further treated with 1 mL ACK lysis buffer for 5 min at room temperature.
After washing with 9 mL of RPMI complete media, cells were re-suspended in 3 mL of 1×PBS in a 15 mL tube. 3 mL of Histopaque was added carefully to the bottom of the tube without disturbing overlaying splenocyte suspension. After centrifuging at 800×g for 20 min at room temperature, the opaque layer of splenocytes was collected carefully without disturbing/mixing the layers. Splenocytes were washed twice with cold 1×PBS followed by total cell counting using Trypan Blue exclusion method and used further for cell based assays.
Splenocytes were cultured in RPMI complete media (RPMI +10% fetal bovine serum+1 mM sodium pyruvate+10,000units/mL penicillin and 10,000 μg/mL streptomycin) and maintained in a CO2 incubator with 5% CO2 at 37° C.
CFSE is a dye that passively diffuses into cells and binds to intracellular proteins. 1×10^6 cells/mL of harvested splenocytes were treated with 5 μM of CFSE in pre-warmed 1×PBS/0.1% BSA solution for 10 min at 37° C. Excess CFSE was quenched using 5 volumes of ice-cold culture media to the cells and incubated on ice for 5 min. CFSE labelled splenocytes were further given three washes with ice cold complete RPMI media. CFSE labelled 1×10^5 splenocytes added to wells containing either MDA-MB231 cells (1×10^5 cells cultured in high glucose DMEM medium) or recombinant […] PDL-1 (100 ng/mL) and test compounds. Splenocytes were stimulated with anti-mouse CD3 and anti-mouse CD28 antibody (lug/mL each), and the culture was further incubated for 72 h at 37° C. with 5% CO2. Cells were harvested and washed thrice with ice cold FACS buffer and % proliferation was analysed by flow cytometry with 488 nm excitation and 521 nm emission filters.
Percent splenocyte proliferation was analysed using cell quest FACS program and percent rescue of splenocyte proliferation by compound was estimated after deduction of % background proliferation value and normalising to % stimulated splenocyte proliferation (positive control) as 100%.
Stimulated splenocytes: Splenocytes+anti-CD3/CD28 stimulation
Background proliferation: Splenocytes+anti-CD3/CD28+PD-L1
Compound proliferation: Splenocytes+anti-CD3/CD28+PD-L1+Compound […]

recombinant human VISTA = target: T2, recombinant human VISTA (Homo sapiens, UniProt Q9H7M9); assay: Human PBMC IFN-γ release assay in the presence of recombinant human VISTA; type: cell-based; conditions: 100 nM compound, plate-coated VISTA + anti-CD3, anti-CD28, 72 h, ELISA
T2 construct: Fc (Fc chimera); purchased R&D Systems 7126-B7
Method: Example 2: Rescue of Mouse Splenocyte Proliferation in the Presence of Recombinant VISTA
Vehicle: Milli Q water; RPMI 1640 (GIBCO, Cat #11875); Fetal Bovine Serum [Hyclone, Cat #SH30071.03]; Penicilin (10000 unit/ml)-Streptomycin (10,000 μg/ml) liquid (GIBCO, Cat #15140-122); MEM Sodium Pyruvate solution 100 mM (100×), Liquid (GIBCO, Cat #11360); Nonessential amino acid (GIBCO, Cat #11140); L-Glutamine (GIBCO, Cat #25030); Recombinant human VISTA (rhGi24 VISTA/B7-H5 Fc chimera (R&D systems, cat no: 7126-B7); Anti-h/m Gi24/VISTA/B7-H5 purified mouse monoclonal IgG2B (R&D systems, cat no: MAB7126); Mouse IgG2B isotype control (R&D Systems cat no: MAB 004); Anti human-CD3 antibody (eBiosciences-16-0039); Anti human-CD28 antibody (eBiosciences-16-0289); Histopaque (density-1.077 gm/ml) (SIGMA 1077); Trypan Blue solution (SIGMA-T8154); Hemacytometer (Bright line-SIGMA Z359629); FACS Buffer containing Phosphate Buffered Saline (PBS) pH 7.2; (HiMedia TS1006) with 0.1% Bovine Serum Albumin (BSA) (SIGMA A7050) and sodium azide (SIGMA 08591); 96-well format ELISA plates (Corning 3599); 96-well format ELISA plates (Corning 3361); BD FACS caliber (E6016); Centrifuge (Eppendorf 5810 R); Human IFN-γ Duo set ELISA kit (R&D Systems; cat no: DY-285).
96-well cell culture plates were pre-coated with recombinant human VISTA (2.5 μg/ml) and anti-human CD3 (2.5 μg/ml), and stored at 4° C. overnight. Anti-human VISTA and isotype control antibodies were either coated along with the VISTA or incubated for 30 min next day before addition of cells. On the next day, plates were washed with 1×PBS and then incubated with test compounds for 30 min. Isolated PBMC (0.1×10^6 cells/well) and anti-human CD28 antibodies (lug/ml) were added to the wells. The culture was further incubated for 72 h at 37° C. with 5% CO2. After 72 h of incubation the cell culture supernatants were collected after brief centrifugation at 200 g×5 min at 4° C. and processed for human IFN-γ measurement by ELISA following manufacturer's protocol (R&D Systems; DY-285).
In brief, 96-well ELISA plates were coated with 100 μl/well of capture antibody in coating buffer and incubated overnight at 4° C. Plates were washed five times with wash buffer and further blocked with 200 μl of 1× assay diluents for 1 hr at RT. Following wash step, 100 μl of cell culture supernatants were added to wells and further incubated for 2 hr at RT. Appropriate standards were also included. After wash step, plate was incubated for one hour with 100 μl/well of detection antibody. The wash step was repeated and the plate was incubated for 30 min with 100 μl/well of Avidin-HRP. The plate was washed four times with wash buffer and subsequently incubated for 15 min with 100 μl/well of substrate solution. 50 μl of stop solution was added to each well and the plate was read at 450 nm using Gen5 ver 2.05. Delta OD values were used for calculating the concentrations. The absorbance values were plotted against the standards and the concentration of IFN-γ was determined using GraphPad Prism software. Each experimental condition was carried out in triplicates.
The percent rescue of IFN-γ release of the selected compounds of present invention are set forth below wherein “A” refers to compounds having more than 70% rescue of IFN-γ release, “B” refers to compounds having rescue of IFN-γ release ranges from 50% to 69.9% and “C” refers to compounds having less than 50% rescue of IFN-γ release.

T2 sequence (Q9H7M9 with tags, fused parts or gaps limits assumed): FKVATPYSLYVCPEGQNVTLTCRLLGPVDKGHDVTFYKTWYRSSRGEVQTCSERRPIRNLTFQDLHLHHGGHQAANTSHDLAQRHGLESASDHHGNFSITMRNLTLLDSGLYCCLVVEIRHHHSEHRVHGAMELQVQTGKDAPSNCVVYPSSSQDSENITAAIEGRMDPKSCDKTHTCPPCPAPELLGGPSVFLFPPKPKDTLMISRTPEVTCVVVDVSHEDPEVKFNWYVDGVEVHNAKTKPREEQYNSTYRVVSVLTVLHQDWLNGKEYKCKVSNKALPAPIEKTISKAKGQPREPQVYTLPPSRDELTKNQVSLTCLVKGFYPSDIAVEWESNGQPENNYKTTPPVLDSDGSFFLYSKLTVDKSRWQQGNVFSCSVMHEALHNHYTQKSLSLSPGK
T1 sequence (Q9EP73 19-238 limits assumed): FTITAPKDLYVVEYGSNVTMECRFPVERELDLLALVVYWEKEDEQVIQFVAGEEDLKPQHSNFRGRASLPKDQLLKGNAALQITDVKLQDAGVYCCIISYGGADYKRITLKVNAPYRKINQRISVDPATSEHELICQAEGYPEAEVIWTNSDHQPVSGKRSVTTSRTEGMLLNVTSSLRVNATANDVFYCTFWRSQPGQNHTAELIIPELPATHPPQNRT

Structure (SMILES) | activation at 0.1 µM (Recombinant mouse PD-L1) | VISTA (rescue of IFN γ release @ 100 nM) (recombinant human VISTA)
CC(O)[C@H](NC(=O)N[C@@H](CC(N)=O)c1nc(C2(N)CCCCC2)no1)C(=O)O (stereo partly shown) [Compound 19] | 86% | B (rescue of IFN-γ release ranges from 50% to 69.9%)
CC(O)[C@H](NC(=O)N[C@@H](CC(N)=O)c1nc([C@H](N)CO)no1)C(=O)O (stereo partly shown) [Compound 21] | 64% | A (more than 70% rescue of IFN-γ release)
CC(O)[C@@H](NC(=O)N[C@H](CC(N)=O)c1nc([C@H](N)CO)no1)C(=O)O (stereo partly shown) [Compound 22] | 83% | A (more than 70% rescue of IFN-γ release)
CC(O)[C@@H](NC(=O)N[C@@H](CC(N)=O)c1nc([C@H](N)CO)no1)C(=O)O (stereo partly shown) [Compound 23] | 72% | A (more than 70% rescue of IFN-γ release)
CC(O)[C@H](NC(=O)N[C@H](CC(N)=O)c1nc([C@H](N)CO)no1)C(=O)O (stereo partly shown) [Compound 24] | 55% | A (more than 70% rescue of IFN-γ release)

Source: patent US20250195478A1, “DUAL INHIBITORS OF VISTA AND PD-1 PATHWAYS” (Aurigene Oncology Limited, priority 2016, published 2025)
